Experimental findings from patent US10980901B2, “Treatment of PMSA expressing cancers” (THE EUROPEAN ATOMIC ENERGY COMMUNITY (EURATOM), REPRESENTED …, priority 2016, dated 2021) are described below.

The nature of data set [1]: Toxicity monitored by blood sampling and clinical side effects, patient cohorts. The format is in vivo, patients. The following applies: patient cohort; for change in thrombocyte or white blood cell count: during therapy; for dysfunction of salivary glands: reported side effect; for tolerability of the treatment: lab tests every 4 weeks, clinical side effects every 8 weeks. On the procedure:
Toxicity was monitored by blood sampling.
Hematologic response was evaluated every 4 weeks per lab tests and clinical side effects were monitored every 8 weeks.

Data set [2] can be described thus: Laboratory test follow-up and side effects of individual mCRPC patients A and B. The format is in vivo. The text has this: After each cycle, the blood cell count and alkaline phosphatase level were checked every 2 week. The platelet level never dropped below 100/n1 (grade 1 according to the Common Terminology Criteria for Adverse Events, version 4.0), the total white blood cell count never dropped below 2.5/n1 (grade 1), and the hemoglobin level never dropped below 9.5 g/dl (grade 2) (FIG. 13A). […] A concordant decline in PSA level and alkaline phosphatase level (FIG. 13B) further underlined the excellent treatment response.
(§1) Patient B was initially treated with Lu-177-PSMA-617 (7.4 GBq per cycle), which was offered as salvage therapy. The initial PSA level was 294 ng/ml. […] Therapy was changed to Ac-225-PSMA-617, and the patient received 3 cycles of 6.4 MBq (100 kBq per kilogram of body weight) at bimonthly intervals.

Data set [3] relates to metastatic castration-resistant prostate cancer (mCRPC). The data set can be described thus: Treatment of individual mCRPC patients A and B: PSA level and PSMA PET/CT restaging. The format is in vivo. On the procedure:
Clinical Course of Patient A presented with diffuse red marrow infiltration of mCRPC (this physical condition was considered a contraindication for treatment with β-emitters). Patient A was treated with 3 cycles of 9-10 MBq (100 kBq per kilogram of body weight) of Ac-225-PSMA-617 at bimonthly intervals.
as §1

Data set [4] concerns PSMA expressing cancers. Put plainly: Treatment response monitored by PSA values in blood, patient cohorts. The format is in vivo, patients. As to conditions: for patients in PSA response / patients in PSA response (percentage): at week-24. On the procedure: 20 Patients were treated 3 times with activities of 100 kBq/kg body weight of Ac-225-PSMA-617 in two month intervals.
Treatment response was monitored by PSA values in blood and with PET/CT (positron emission tomography-computed tomography) with Ga-68-PSMA-HBED-CC (also called Gallium-68-PSMA11) before therapy and after the third therapy.
Experiments have been conducted to compare the efficiency of the Ac-225-radiopharmaceuticals as used in the present invention, such as Ac-225-PSMA-617, with that of non-Ac-225-radiopharmaceuticals comprising the same targeting compound, but chelated e.g. with Lu-177, such as a radionuclide Lu-177-PSMA-617.

Data set [5] deals with PSMA expressing cancers. The data set is described as above. It is filed as in vivo, patients. As to conditions: comparative example.
Where [6] appears, read: patient A, checked every 2 week after each cycle.
Setting [7] is: patient A, after additional 6 MBq consolidation therapy.
Where [8] appears, read: eight weeks after the first treatment cycle, 20 patients, 100 kBq/kg body weight.
Where [9] appears, read: sixteen weeks after the first treatment cycle, 20 patients, 100 kBq/kg body weight.
[10] abbreviates: twenty-four weeks after the first treatment cycle, 20 patients, 100 kBq/kg body weight.
[11] abbreviates: 30 patients, eight weeks after the first treatment cycle.

Molecules are shown by their SMILES.

Turning to `O=C(O)CCC(NC(=O)NC(CCCCNC(=O)C(Cc1cccc2ccccc12)NC(=O)C1CCC(CNC(=O)CN2CCN(CC(=O)O)CCN(CC(=O)O)CCN(CC(=O)O)CC2)CC1)C(=O)O)C(=O)O` (stereo not shown) [Ac-225-PSMA-617, metal not drawn], in data set [1], the “change in thrombocyte or white blood cell count” value is “no significant change”, the “dysfunction of salivary glands” value is “Several patients reported dysfunction of salivary glands” and the “tolerability of the treatment” value is on record as “well tolerated”. Also, in data set [2] (patient A), the “clinically reported side effect” value is “Moderate but enduring dysfunction of salivary glands”; the “hemoglobin level, CTCAE grade” value is given as “grade 2”; the “platelet level, grade according to Common Terminology Criteria for Adverse Events, version 4.0” value was “grade 1”; the “total white blood cell count, CTCAE grade” value is recorded as “grade 1”. The “hematologic toxicity (blood cell count)” value in data set [2] (patient A, FIG. 13A) was “moderate hematologic toxicity”. Also, in data set [2] (setting [6]), the “hemoglobin level (lowest)” value is at least 9.5 g/dL, the “platelet level (lowest)” value is reported as ≥ 100 /n1 and the “total white blood cell count (lowest)” value is recorded as ≥ 2.5 /n1. Further, the reported side effect result in data set [2] (patient B) is listed as “severe dysfunction of salivary glands”. In data set [2] (patient B, 3 cycles of 6.4 MBq), the “hematologic toxicity (laboratory tests)” value is on record as “no relevant hematologic toxicity”. The “tumor markers (PSA, alkaline phosphatase)” value in data set [3] (patient A, FIG. 13B) is listed as “Decline of tumor markers to none measurable or reference range”. Moreover, in data set [3] (setting [7]), the PSA level result was “less than 0.1 ng/ml” and the imaging response result is “complete imaging response”. Moreover, the “previously PSMA-positive lesions on PSMA PET/CT” value in data set [3] (patient A, two months after 3 cycles of 9-10 MBq (100 kBq/kg) at bimonthly intervals) is on record as “visually disappeared”. The same compound gave a PSA level in data set [3] (patient A, two months after 3 cycles of 9-10 MBq, dropped from more than 3,000 ng/ml) of 0.26 ng/mL. Moreover, the “restaging based on PSMA PET/CT” value in data set [3] (patient B, after 2 cycles of 6.4 MBq (100 kBq/kg) at bimonthly intervals, after failed Lu-177-PSMA-617) is “partial response”. Further, the “restaging based on PSMA PET/CT” value in data set [3] (patient B, after 3 cycles of 6.4 MBq (100 kBq/kg) at bimonthly intervals) was “complete remission”. Besides, the PSA level in data set [3] (patient B, after 3 cycles of 6.4 MBq, below the measurable level) is below 0.1 ng/mL. Further, in data set [3] (patient B, after second and third cycles, FIG. 14C, 14D), the “restaging on 68-Ga-PSMA-11 PET/CT” value is on record as “impressive response”. Further, in data set [4], the “patients in PSA response” value was 15/28 and the “patients in PSA response (percentage)” value amounted to 54%. In addition, in data set [4] (setting [8]), the “patients with decrease in PSA >25%” value is 17 patients and the “patients with decrease in PSA >50%” value was determined as 12 patients. Also, the “patients presenting a decrease in PSA” value in data set [4] (eight weeks after the first treatment cycle, 20 patients, 100 kBq/kg body weight, 3 times in two month intervals) is on record as 19/20. Also, in data set [4] (setting [9]), the “patients presenting a decrease in PSA” value is given as 15/20 and the “patients with decrease in PSA >50%” value stood at 14 patients. In data set [4] (setting [10]), the “patients presenting a decrease in PSA” value is 15/20 and the “patients with decrease in PSA >50%” value amounted to 12 patients.

Regarding `O=C([O-])CN1CCN(CC(=O)[O-])CCN(CC(=O)NCC2CCC(C(=O)N[C@@H](Cc3ccc4ccccc4c3)C(=O)NCCCC[C@H](NC(=O)N[C@@H](CCC(=O)O)C(=O)O)C(=O)O)CC2)CCN(CC(=O)[O-])CC1.[177Lu+3]` (stereo partly shown) [Lu-177-PSMA-617, reference compound], in data set [1], the “change in thrombocyte or white blood cell count” value was “no significant change”, the “dysfunction of salivary glands” value is on record as “Mild moderate dysfunction of salivary glands” and the “tolerability of the treatment” value is “well tolerated”. Besides, the “lesions on PSMA PET/CT, restaging” value in data set [3] (patient B, after 2 cycles of Lu-177-PSMA-617) is on record as “tumor progression”. Also, in data set [3] (patient B, after cycle 2, 7.4 GBq per cycle, initial PSA level 294 ng/ml), the PSA level turned out to be 419 ng/mL. For the same compound, in data set [5] (setting [11]), the “patients presenting a decrease in PSA” value was 21/30 and the “patients with decrease in PSA >50%” value is 16 patients. Also, in data set [5] (30 patients, twenty-four weeks after the first treatment cycle, some patients dropped out), the “patients presenting a decrease in PSA” value is reported as 9/30. Also, the “patients with decrease in PSA >50% among those with PSA decrease” value in data set [5] (twenty-four weeks after the first treatment cycle) is “all of them”. For the same compound, in data set [4], the “patients in PSA response” value is reported as 9/30 and the “patients in PSA response (percentage)” value came out at 30%. Further, in data set [4] (comparison of treated groups), the “response rate in comparison to Ac-225-PSMA-617 group” value is on record as “lower response rate”.
